Results taken from patent publication US20140128599A1, “BENZOXAZOLE KINASE INHIBITORS AND METHODS OF USE” (Intellikine LLC La Jolla, priority 2008, published 2014).

Key:
Type in all cases: biochemical
mTOR = target: T1, mTOR (Homo sapiens, UniProt P42345); experiment: mTOR kinase inhibition assay
T1 construct: purchased Invitrogen
Experimental: The compounds described herein can be tested against recombinant mTOR (Invitrogen) in an assay containing 50 mM HEPES, pH 7.5, 1 mM EGTA, 10 mM MgCl2, 2.5 mM, 0.01% Tween, 10 μM ATP (2.5 μCi of μ-32P-ATP), and 3 μg/mL BSA. Rat recombinant PHAS-1/4EBP1 (Calbiochem; 2 mg/mL) is used as a substrate. Reactions are terminated by spotting onto nitrocellulose, which is washed with 1M NaCl/1% phosphoric acid (approximately 6 times, 5-10 minutes each). Sheets are dried and the transferred radioactivity quantitated by phosphorimaging.
This assay is a time resolved FRET platform that measures the phosphorylation of GFP labeled 4EBP1 by mTOR kinase. The kinase reaction is performed in a white 384 well microtitre plate. The total reaction volume is 20 ul per well and the reaction buffer composition is 50 mM HEPES pH7.5, 0.01% Polysorbate 20, 1 mM EGTA, 10 mM MnCl2, and 2 mM DTT. In the first step, each well receives 2 ul of test compound in 20% dimethylsulphoxide resulting in a 2% DMSO final concentration. Next, 8 ul of mTOR diluted in reaction buffer is added per well for a 60 ng/ml final concentration. To start the reaction, 10 ul of an ATP/GFP-4EBP1 mixture (diluted in reaction buffer) is added per well for a final concentration of 10 uM ATP and 0.5 uM GFP-4EBP1. The plate is sealed and incubated for 1 hour at room temperature. […] The plate is sealed, incubated for 1 hour at room temperature, and then read on a plate reader set up for LanthaScreen™ TR-FRET. Data is analyzed and IC50s are generated using GraphPad Prism 5.

PI3K α = target: T2, PI3K α (Homo sapiens, UniProt P42336); experiment: PI3K kinase inhibition assay (p110α/p85α)
T2 construct: purchased Upstate

PI3K β = target: T3, PI3K β (Homo sapiens, UniProt P42338); experiment: PI3K kinase inhibition assay (p110β/p85α)
T3 construct: purchased Upstate

PI3K γ = target: T4, PI3K γ (Homo sapiens, UniProt P48736); experiment: PI3K kinase inhibition assay (p110γ)
T4 construct: purchased Sigma
Experimental: IC50 values are measured using either a standard TLC assay for lipid kinase activity (described below) or a high-throughput membrane capture assay. Kinase reactions are performed by preparing a reaction mixture containing kinase, inhibitor (2% DMSO final concentration), buffer (25 mM HEPES, pH 7.4, 10 mM MgCl2), and freshly sonicated phosphatidylinositol (100 μg/ml). Reactions are initiated by the addition of ATP containing 10 μCi of γ-32P-ATP to a final concentration 10 or 100 μM and allowed to proceed for 5 minutes at room temperature. For TLC analysis, reactions are then terminated by the addition of 105 μl 1N HCl followed by 160 μl CHCl3:MeOH (1:1). The biphasic mixture is vortexed, briefly centrifuged, and the organic phase is transferred to a new tube using a gel loading pipette tip precoated with CHCl3. […] The TLC plates are then dried, exposed to a phosphorimager screen (Storm, Amersham), and quantitated.
Briefly, the assay is a time resolved FRET assay that indirectly measures PIP3 product formed by the activity of a PI3-K. The kinase reaction is performed in a microtitre plate (e.g., a 384 well microtitre plate). The total reaction volume is approximately 20 ul per well. In the first step, each well receives 2 ul of test compound in 20% dimethylsulphoxide resulting in a 2% DMSO final concentration. Next, approximately 14.5 ul of a kinase/PIP2 mixture (diluted in 1× reaction buffer) is added per well for a final concentration of 0.25-0.3 ug/ml kinase and 10 uM PIP2. The plate is sealed and incubated for 15 minutes at room temperature. To start the reaction, 3.5 ul of ATP (diluted in 1× reaction buffer) is added per well for a final concentration of 10 uM ATP. The plate is sealed and incubated for 1 hour at room temperature. The reaction is stopped by adding 5 ul of Stop Solution per well and then 5 ul of Detection Mix is added per well. The plate is sealed, incubated for 1 hour at room temperature, and then read on an appropriate plate reader. Data is analyzed and IC50s are generated using GraphPad Prism 5.

PI3K δ = target: T5, PI3K δ (Homo sapiens, UniProt O00329); experiment: PI3K kinase inhibition assay (p110δ/p85α)
T5 construct: purchased Upstate
T5 sequence (O00329 whole entry): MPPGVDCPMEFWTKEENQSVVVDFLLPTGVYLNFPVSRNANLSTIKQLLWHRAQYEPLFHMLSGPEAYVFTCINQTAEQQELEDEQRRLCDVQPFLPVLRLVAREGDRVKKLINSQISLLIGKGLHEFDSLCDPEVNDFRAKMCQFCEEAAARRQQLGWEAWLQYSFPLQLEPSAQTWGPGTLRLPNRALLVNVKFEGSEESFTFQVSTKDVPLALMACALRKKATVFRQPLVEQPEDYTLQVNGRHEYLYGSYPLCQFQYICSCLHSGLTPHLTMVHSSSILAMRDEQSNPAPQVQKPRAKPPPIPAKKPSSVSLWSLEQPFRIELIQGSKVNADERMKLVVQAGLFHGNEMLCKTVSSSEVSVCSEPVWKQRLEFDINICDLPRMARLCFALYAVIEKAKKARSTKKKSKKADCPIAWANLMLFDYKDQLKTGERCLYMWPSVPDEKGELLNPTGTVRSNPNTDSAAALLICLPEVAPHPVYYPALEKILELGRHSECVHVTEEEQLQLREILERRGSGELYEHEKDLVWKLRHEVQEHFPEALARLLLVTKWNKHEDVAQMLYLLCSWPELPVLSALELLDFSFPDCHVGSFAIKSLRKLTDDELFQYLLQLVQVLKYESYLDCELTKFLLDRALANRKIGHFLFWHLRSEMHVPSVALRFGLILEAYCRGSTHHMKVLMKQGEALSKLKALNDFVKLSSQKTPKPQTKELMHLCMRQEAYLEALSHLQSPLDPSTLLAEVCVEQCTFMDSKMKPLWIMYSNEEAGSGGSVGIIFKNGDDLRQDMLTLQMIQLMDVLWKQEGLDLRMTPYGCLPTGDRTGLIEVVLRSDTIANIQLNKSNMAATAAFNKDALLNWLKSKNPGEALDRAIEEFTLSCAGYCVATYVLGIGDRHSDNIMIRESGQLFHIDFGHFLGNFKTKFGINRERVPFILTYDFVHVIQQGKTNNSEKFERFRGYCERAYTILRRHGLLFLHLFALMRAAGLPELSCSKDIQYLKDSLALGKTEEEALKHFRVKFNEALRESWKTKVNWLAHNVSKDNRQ
T5 sequence (P27986 whole entry partner): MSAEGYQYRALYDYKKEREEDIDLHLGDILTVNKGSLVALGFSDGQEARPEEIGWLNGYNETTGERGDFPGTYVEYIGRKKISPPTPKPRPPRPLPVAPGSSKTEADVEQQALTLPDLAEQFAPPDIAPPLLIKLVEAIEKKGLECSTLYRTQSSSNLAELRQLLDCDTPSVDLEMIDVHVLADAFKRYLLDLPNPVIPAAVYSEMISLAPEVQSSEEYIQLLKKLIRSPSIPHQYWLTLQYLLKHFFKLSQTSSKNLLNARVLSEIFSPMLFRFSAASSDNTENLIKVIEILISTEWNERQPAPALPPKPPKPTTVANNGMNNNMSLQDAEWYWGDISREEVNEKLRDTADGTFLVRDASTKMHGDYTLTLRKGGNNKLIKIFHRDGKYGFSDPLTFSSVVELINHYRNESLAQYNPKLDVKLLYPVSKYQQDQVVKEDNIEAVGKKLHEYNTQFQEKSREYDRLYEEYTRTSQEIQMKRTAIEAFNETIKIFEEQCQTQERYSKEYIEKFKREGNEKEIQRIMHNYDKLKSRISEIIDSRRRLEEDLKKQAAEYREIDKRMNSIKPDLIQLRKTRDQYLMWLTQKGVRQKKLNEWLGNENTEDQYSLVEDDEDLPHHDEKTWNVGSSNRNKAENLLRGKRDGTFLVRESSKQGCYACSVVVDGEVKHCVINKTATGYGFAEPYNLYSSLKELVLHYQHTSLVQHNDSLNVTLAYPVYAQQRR

T2 sequence (P42336 whole entry): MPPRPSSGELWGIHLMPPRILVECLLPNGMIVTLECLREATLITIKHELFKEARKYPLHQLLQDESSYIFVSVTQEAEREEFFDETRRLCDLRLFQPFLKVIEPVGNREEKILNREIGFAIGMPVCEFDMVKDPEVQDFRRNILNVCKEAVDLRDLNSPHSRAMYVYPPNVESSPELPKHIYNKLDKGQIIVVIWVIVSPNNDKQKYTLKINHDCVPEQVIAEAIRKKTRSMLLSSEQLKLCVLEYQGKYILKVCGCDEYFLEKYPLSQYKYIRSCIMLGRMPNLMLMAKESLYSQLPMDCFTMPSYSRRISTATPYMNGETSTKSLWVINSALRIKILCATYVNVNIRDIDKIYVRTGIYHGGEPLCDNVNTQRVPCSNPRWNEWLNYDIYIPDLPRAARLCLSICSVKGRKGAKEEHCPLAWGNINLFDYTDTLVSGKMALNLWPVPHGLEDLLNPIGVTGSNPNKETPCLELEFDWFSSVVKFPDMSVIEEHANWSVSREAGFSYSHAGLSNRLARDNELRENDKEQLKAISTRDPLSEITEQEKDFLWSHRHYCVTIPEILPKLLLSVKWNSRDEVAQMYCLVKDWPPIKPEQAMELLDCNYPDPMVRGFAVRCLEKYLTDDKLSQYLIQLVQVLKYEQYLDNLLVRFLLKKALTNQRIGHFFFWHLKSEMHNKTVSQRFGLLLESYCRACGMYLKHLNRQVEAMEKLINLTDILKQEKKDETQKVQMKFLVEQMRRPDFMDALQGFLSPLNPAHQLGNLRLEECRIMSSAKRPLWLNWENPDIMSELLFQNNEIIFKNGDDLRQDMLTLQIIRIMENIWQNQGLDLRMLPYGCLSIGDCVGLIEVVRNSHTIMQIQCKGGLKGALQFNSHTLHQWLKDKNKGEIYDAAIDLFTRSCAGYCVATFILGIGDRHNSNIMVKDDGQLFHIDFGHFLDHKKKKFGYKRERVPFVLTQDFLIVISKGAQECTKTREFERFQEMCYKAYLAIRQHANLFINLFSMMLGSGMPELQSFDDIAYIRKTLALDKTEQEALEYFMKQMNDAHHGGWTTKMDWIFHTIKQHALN
T2 sequence (P27986 whole entry partner): as the sequence (P27986 whole entry partner) above
T4 sequence (P48736 whole entry): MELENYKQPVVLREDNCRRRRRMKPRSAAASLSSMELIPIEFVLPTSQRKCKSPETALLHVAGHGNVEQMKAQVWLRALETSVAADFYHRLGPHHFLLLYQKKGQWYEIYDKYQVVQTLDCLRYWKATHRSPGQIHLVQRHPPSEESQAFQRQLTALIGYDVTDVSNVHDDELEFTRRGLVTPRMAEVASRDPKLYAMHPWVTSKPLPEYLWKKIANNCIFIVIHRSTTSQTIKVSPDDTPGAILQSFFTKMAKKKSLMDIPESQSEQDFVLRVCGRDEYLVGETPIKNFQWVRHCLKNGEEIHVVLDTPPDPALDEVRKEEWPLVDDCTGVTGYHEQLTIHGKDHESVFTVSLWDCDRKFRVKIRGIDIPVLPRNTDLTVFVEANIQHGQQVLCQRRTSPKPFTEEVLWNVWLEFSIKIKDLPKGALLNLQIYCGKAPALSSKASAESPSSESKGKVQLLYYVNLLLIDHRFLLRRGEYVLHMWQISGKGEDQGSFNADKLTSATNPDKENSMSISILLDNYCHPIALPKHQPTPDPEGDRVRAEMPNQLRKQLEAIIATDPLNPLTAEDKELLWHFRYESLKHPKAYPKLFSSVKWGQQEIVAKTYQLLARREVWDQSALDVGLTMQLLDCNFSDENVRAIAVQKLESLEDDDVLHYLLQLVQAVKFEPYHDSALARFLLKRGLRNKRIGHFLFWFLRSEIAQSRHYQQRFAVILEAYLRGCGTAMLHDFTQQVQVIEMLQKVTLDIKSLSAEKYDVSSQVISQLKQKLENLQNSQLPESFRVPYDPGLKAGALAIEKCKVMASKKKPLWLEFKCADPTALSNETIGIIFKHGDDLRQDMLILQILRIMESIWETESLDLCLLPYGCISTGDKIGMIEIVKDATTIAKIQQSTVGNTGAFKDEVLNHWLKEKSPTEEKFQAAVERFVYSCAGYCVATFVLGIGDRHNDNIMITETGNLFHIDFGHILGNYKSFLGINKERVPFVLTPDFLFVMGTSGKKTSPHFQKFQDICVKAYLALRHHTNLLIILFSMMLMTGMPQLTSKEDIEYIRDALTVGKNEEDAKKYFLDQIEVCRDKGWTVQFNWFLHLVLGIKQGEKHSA
T3 sequence (P42338 whole entry): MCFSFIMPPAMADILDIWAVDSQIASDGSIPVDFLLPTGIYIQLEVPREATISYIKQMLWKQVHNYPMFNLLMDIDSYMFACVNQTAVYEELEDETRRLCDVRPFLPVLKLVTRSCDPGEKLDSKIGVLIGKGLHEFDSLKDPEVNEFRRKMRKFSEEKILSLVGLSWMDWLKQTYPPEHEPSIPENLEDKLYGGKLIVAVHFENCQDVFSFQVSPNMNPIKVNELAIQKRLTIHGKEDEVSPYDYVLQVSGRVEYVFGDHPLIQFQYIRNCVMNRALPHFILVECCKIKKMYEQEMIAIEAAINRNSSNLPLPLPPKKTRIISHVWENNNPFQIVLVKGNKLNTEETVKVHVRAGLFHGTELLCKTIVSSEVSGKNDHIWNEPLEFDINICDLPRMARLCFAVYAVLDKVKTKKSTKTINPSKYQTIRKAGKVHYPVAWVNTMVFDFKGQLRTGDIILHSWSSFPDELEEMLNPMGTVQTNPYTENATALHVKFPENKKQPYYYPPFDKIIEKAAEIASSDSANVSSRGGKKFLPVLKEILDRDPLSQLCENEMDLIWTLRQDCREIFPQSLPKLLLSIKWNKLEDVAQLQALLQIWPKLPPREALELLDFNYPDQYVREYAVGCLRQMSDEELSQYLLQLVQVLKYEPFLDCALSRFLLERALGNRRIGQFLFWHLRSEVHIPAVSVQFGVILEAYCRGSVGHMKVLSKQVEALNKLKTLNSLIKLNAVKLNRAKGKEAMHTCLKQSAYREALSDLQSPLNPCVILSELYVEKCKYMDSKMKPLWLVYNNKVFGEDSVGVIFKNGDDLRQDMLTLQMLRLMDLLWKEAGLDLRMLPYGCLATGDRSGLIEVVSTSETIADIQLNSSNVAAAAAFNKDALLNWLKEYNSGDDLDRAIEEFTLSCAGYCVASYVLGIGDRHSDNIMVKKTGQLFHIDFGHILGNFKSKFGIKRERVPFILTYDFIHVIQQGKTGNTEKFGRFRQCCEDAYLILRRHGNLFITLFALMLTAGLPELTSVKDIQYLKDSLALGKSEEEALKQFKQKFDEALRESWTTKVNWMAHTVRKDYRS
T3 sequence (P27986 whole entry partner): as the sequence (P27986 whole entry partner) above

| Structure (SMILES) | IC50 (mTOR) [µM] | IC50 (PI3K α) [µM] | IC50 (PI3K β) [µM] | IC50 (PI3K γ) [µM] | IC50 (PI3K δ) [µM] |
| --- | --- | --- | --- | --- | --- |
| CC(=O)Nc1nc2cc(-c3nn(C(C)C)c4ncnc(N)c34)ccc2o1 [compound 2] | < 0.1 | < 10 | > 10 | < 1 | < 1 |
| CC(=O)Nc1nc2ccc(-c3nn(C(C)C)c4ncnc(N)c34)cc2o1 [compound 3] |  | > 10 |  |  |  |
| CC(C)n1nc(-c2ccc3nc(N)oc3c2)c2c(N)ncnc21 [compound 4] | < 1 | < 10 | < 10 | < 1 | < 1 |
| Nc1nc2cc(-c3nn(C4CCOCC4)c4ncnc(N)c34)ccc2o1 [compound 5] | < 0.1 | < 1 | < 10 | < 0.1 | < 1 |
| Nc1nc2cc(-c3nn(C4CCC(N5CCOCC5)CC4)c4ncnc(N)c34)ccc2o1 (stereo not drawn) [compound 6] |  |  | > 10 |  | < 1 |
| CC(=O)N1CCC(n2nc(-c3ccc4oc(N)nc4c3)c3c(N)ncnc32)CC1 [compound 7] |  | < 1 | < 10 | < 10 | < 1 |
| CC(C)n1cc(-c2ccc3oc(N)nc3c2)c2c(N)ncnc21 [compound 8] | < 0.1 | < 1 | > 10 | < 1 | < 1 |
| Nc1nc2cc(-c3cn(C4CCOCC4)c4ncnc(N)c34)ccc2o1 [compound 9] |  | < 10 | > 10 |  |  |
| CC(C)n1nc(-c2ccc3onc(N)c3c2)c2c(N)ncnc21 [compound 10] | < 10 |  |  |  |  |
| CC(=O)Nc1noc2cc(-c3nn(C(C)C)c4ncnc(N)c34)ccc12 [compound 11] | < 1 |  |  |  |  |
| CC(C)n1nc(-c2ccc3c(N)noc3c2)c2c(N)ncnc21 [compound 12] | < 1 |  |  |  |  |
| CNc1noc2cc(-c3nn(C(C)C)c4ncnc(N)c34)ccc12 [compound 13] | < 10 | < 10 |  | < 1 | < 1 |
| CC(C)n1nc(-c2ccc3c(NC4CC4)noc3c2)c2c(N)ncnc21 [compound 14] | < 10 | < 10 |  |  | < 10 |
| CC(C)n1nc(-c2ccc3onc(NC4CC4)c3c2)c2c(N)ncnc21 [compound 16] | > 10 | > 10 |  |  | > 10 |
| Nc1noc2ccc(-c3nn(CC(=O)N4CCOCC4)c4ncnc(N)c34)cc12 [compound 17] | > 10 | > 10 |  | > 10 | > 10 |
| COC(=O)Nc1noc2ccc(-c3nn(C(C)C)c4ncnc(N)c34)cc12 [compound 19] | < 10 |  | > 10 |  | > 10 |
| COC(=O)Nc1noc2cc(-c3nn(C(C)C)c4ncnc(N)c34)ccc12 [compound 20] | < 10 |  | > 10 |  | < 10 |
| Cc1nc(N)c2c(-c3ccc4oc(N)nc4c3)nn(C(C)C)c2n1 [compound 21] | < 1 | > 10 | > 10 | > 10 | > 10 |
| CC(CO)n1nc(-c2ccc3oc(N)nc3c2)c2c(N)ncnc21 (stereo not drawn) [compound 23] | < 0.1 | < 10 | > 10 | < 10 | < 10 |
| Nc1nc2cc(-c3nn(C4CC(=O)C4)c4ncnc(N)c34)ccc2o1 [compound 25] |  | < 1 | < 10 | < 0.1 | < 1 |
| Nc1nc2cc(-c3nn(C4CC(O)C4)c4ncnc(N)c34)ccc2o1 (stereo not drawn) [compound 26] |  | < 0.1 |  | < 0.1 |  |
| CC(C)(CO)n1nc(-c2ccc3oc(N)nc3c2)c2c(N)ncnc21 [compound 27] |  | < 10 | > 10 | > 10 | < 1 |
